The experiment deals with Protein cereblon/Interleukin-1 receptor-associated kinase 4 (Homo sapiens, UniProt Q9NWZ3+Q96SW2). The experiment is described as follows: Protac activity at E3 ubiquitin ligase/IRAK4 in human OCILY10 cells assessed as degradation of IRAK4 incubated for 4 hr by MSD assay. The experiment is classed as cell-based.

A value given as a limit tells only on which side of the number the result lay.

Sequence of Protein cereblon/Interleukin-1 receptor-associated kinase 4 (Q9NWZ3 whole entry): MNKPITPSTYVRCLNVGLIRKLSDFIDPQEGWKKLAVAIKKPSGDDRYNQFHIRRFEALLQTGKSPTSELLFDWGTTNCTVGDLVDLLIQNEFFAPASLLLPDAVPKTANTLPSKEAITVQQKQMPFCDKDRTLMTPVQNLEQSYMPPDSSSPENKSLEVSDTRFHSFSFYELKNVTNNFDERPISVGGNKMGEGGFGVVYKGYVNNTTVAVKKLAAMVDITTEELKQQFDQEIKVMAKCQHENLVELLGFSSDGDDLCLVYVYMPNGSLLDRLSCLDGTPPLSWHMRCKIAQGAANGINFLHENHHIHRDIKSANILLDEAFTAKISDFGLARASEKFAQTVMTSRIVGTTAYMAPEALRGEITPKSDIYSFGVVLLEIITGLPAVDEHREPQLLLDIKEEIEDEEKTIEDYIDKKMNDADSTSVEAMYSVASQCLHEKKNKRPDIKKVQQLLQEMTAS
Sequence of Protein cereblon/Interleukin-1 receptor-associated kinase 4 (Q96SW2 whole entry): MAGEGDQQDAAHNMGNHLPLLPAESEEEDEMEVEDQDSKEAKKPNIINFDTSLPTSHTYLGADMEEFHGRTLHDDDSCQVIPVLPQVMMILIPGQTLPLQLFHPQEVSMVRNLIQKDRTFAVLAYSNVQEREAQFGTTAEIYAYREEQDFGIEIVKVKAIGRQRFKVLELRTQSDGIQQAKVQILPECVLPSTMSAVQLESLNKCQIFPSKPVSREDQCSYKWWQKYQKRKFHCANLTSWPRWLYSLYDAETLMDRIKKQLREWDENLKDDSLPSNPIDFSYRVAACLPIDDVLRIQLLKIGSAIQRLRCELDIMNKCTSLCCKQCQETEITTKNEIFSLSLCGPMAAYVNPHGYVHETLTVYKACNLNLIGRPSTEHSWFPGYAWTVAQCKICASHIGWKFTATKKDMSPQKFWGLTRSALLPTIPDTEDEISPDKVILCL

Usually DC50 stands for the concentration at which degradation of the target reaches its halfway point. In the case of `COc1cc2nc([C@H]3CC[C@H](CN4CCC(c5ccn6c(N7CCC(=O)NC7=O)cnc6c5)CC4)CC3)sc2cc1NC(=O)c1cccc(C(F)(F)F)n1`, the DC50 is less than 10 nM.
As for `CN(C[C@H]1CC[C@H](n2cc3cc(NC(=O)c4cccc(C(F)(F)F)n4)ccc3n2)CC1)C1CCN(c2ccn3c(N4CCC(=O)NC4=O)cnc3c2)CC1`, the figure is less than 10 nM.
As to `CN(C[C@H]1CC[C@H](n2cc3cc(NC(=O)c4cccc(C(F)(F)F)n4)ncc3n2)CC1)C1CCN(c2ccn3c(N4CCC(=O)NC4=O)cnc3c2)CC1`, the DC50 was less than 10 nM.
In the case of `CN(C[C@H]1CC[C@H](n2cc3cc(NC(=O)c4cccc(C(F)(F)F)n4)c(C(C)(C)O)cc3n2)CC1)C1CCN(c2ccn3c(N4CCC(=O)NC4=O)cnc3c2)CC1`, the DC50 was less than 10 nM.
In the case of `CN(C[C@H]1CC[C@H](n2cc3cc(NC(=O)c4cccc(C(F)(F)F)n4)c(C(C)(C)O)cc3n2)CC1)C1CCN(c2ccc3c(N4CCC(=O)NC4=O)cncc3c2)CC1`, the DC50 is less than 10 nM.
As to `COc1cc2nn([C@H]3CC[C@H](CN(C)C4CCN(c5ccc6c(N7CCC(=O)NC7=O)cncc6c5)CC4)CC3)cc2cc1NC(=O)c1cccc(C(F)(F)F)n1`, the DC50 was less than 10 nM.

Values taken from ChEMBL document CHEMBL5126650, “Novel IRAK Degraders for Treating Cancer” (ACS Med Chem Lett, 2022).
